Tests used:
[1] = system: VIOTR; experiment: Pre-emergence herbicidal action against VIOTR; type: in vivo, Viola tricolor; conditions: 320 g/ha
Source text: (§1) Seeds of monocotyledonous and dicotyledonous weed plants and crop plants are laid out in sandy loam soil in wood-fiber pots and covered with soil. The compounds of the invention, formulated in the form of wettable powders (WP) or as emulsion concentrates (EC), are then applied to the surface of the covering soil as aqueous suspension or emulsion at a water application rate equating to 600 to 800 L/ha with addition of 0.2% wetting agent.
(§2) After the treatment, the pots are placed in a greenhouse and kept under good growth conditions for the trial plants. The damage to the test plants is scored visually after a test period of 3 weeks by comparison with untreated controls (herbicidal activity in percent (%): 100% activity=the plants have died, 0% activity=like control plants).

[2] = system: ALOMY; experiment: Post-emergence herbicidal action against ALOMY; type: in vivo, Alopecurus myosuroides; conditions: 80 g/ha, visual assessment after about 3 weeks
Protocol: (§3) Seeds of monocotyledonous and dicotyledonous weed and crop plants are laid out in sandy loam soil in wood-fiber pots, covered with soil and cultivated in a greenhouse under good growth conditions. 2 to 3 weeks after sowing, the test plants are treated at the one-leaf stage. The compounds of the invention, formulated in the form of wettable powders (WP) or as emulsion concentrates (EC), are then sprayed onto the green parts of the plants as aqueous suspension or emulsion at a water application rate equating to 600 to 800 l/ha with addition of 0.2% wetting agent. After the test plants have been left to stand in the greenhouse under optimal growth conditions for about 3 weeks, the action of the preparations is assessed visually in comparison to untreated controls (herbicidal action in percent (%): 100% activity=the plants have died, 0% activity=like control plants).

[3] = system: ECHCG; experiment: Pre-emergence herbicidal action against ECHCG; type: in vivo, Echinochloa crus-galli; conditions: 320 g/ha, scored visually after 3 weeks vs untreated controls
Source text: as §1, §2

[4] = system: DIGSA; experiment: Post-emergence herbicidal action against DIGSA; type: in vivo, Digitaria sanguinalis; conditions: 80 g/ha, visual assessment about 3 weeks after treatment vs untreated controls
Protocol: as §3

[5] = system: AMARE; experiment: Pre-emergence herbicidal action against AMARE; type: in vivo, Amaranthus retroflexus; conditions: 320 g/ha
Source text: as §1, §2

[6] = system: DIGSA; experiment: Pre-emergence herbicidal action against DIGSA; type: in vivo, Digitaria sanguinalis; conditions: 320 g/ha, scored visually after 3 weeks vs untreated controls
Source text: as §1, §2

[7] = system: AVEFA; experiment: Pre-emergence herbicidal action against AVEFA; type: in vivo, Avena fatua; conditions: 320 g/ha, scored visually after 3 weeks vs untreated controls
Source text: as §1, §2

[8] = system: SETVI; experiment: Pre-emergence herbicidal action against SETVI; type: in vivo, Setaria viridis; conditions: 320 g/ha, scored visually after 3 weeks vs untreated controls
Source text: as §1, §2

[9] = system: ALOMY; experiment: Pre-emergence herbicidal action against ALOMY; type: in vivo, Alopecurus myosuroides; conditions: 320 g/ha, scored visually after 3 weeks vs untreated controls
Source text: as §1, §2

[10] = system: SETVI; experiment: Post-emergence herbicidal action against SETVI; type: in vivo, Setaria viridis; conditions: 80 g/ha, visual assessment about 3 weeks after treatment vs untreated controls
Protocol: as §3

[11] = system: LOLRI; experiment: Pre-emergence herbicidal action against LOLRI (Table 8, titled post-emergence at 320 g/ha); type: in vivo, Lolium rigidum; conditions: table stands in the pre-emergence section
Source text: as §1, §2

[12] = system: ECHCG; experiment: Post-emergence herbicidal action against ECHCG; type: in vivo, Echinochloa crus-galli; conditions: 80 g/ha, visual assessment about 3 weeks after treatment vs untreated controls
Protocol: as §3

[13] = system: VERPE; experiment: Pre-emergence herbicidal action against VERPE; type: in vivo, Veronica persica; conditions: 320 g/ha
Source text: as §1, §2

[14] = system: AVEFA; experiment: Post-emergence herbicidal action against AVEFA; type: in vivo, Avena fatua; conditions: 80 g/ha, visual assessment after about 3 weeks
Protocol: as §3

[15] = system: LOLRI; experiment: Post-emergence herbicidal action against LOLRI; type: in vivo, Lolium rigidum; conditions: 80 g/ha, visual assessment about 3 weeks after treatment vs untreated controls
Protocol: as §3

SMILES	Pre-emergence action against VIOTR in % [1] [%]	Post-emergence action against ALOMY in % [2] [%]	Pre-emergence action against ECHCG in % [3] [%]	Post-emergence action against DIGSA in % [4] [%]	Pre-emergence action against AMARE in % [5] [%]	Pre-emergence action against DIGSA in % [6] [%]	Pre-emergence action against AVEFA in % [7] [%]	Pre-emergence action against SETVI in % [8] [%]	Pre-emergence action against ALOMY in % [9] [%]	Post-emergence action against SETVI in % [10] [%]	Pre-emergence herbicidal action against LOLRI in % [11] [%]	Post-emergence action against ECHCG in % [12] [%]	Pre-emergence action against VERPE in % [13] [%]	Post-emergence action against AVEFA in % [14] [%]	Post-emergence action against LOLRI in % [15] [%]
CC#Cc1cc(C)c(C2=C(O)C3(CCC(COCC)C3)NC2=O)c(Br)c1 (centres unmarked) [Example I-21]	100	100	100	100	100	100	100	100	100	100	100	100	–	–	–
C=CCOCC1CCC2(C1)NC(=O)C(c1c(F)cc(C#CC)cc1OC)=C2OC(=O)OCC (centres unmarked) [Example P-77]	100	90	100	80	–	100	90	100	100	100	100	100	80	–	–
CC#Cc1cc(C)c(C2=C(OC(=O)C(C)C)C3(CCC(COC)C3)NC2=O)c(F)c1 (centres unmarked) [Example P-57]	100	100	100	100	80	100	80	100	100	100	100	100	–	90	100
CC#Cc1cc(C)c(C2=C(OC(=O)C(C)C)C3(CCC(COC)C3)NC2=O)c(OC)c1 (centres unmarked) [Example P-46]	100	100	100	100	100	100	100	100	100	100	100	100	–	90	100
CC#Cc1cc(C)c(C2=C(OC(=O)OCC)C3(CCC(COCC)C3)NC2=O)c(OC)c1 (centres unmarked) [Example P-48]	100	100	100	100	–	100	100	100	100	100	100	100	80	90	100
CC#Cc1cc(Br)c(C2=C(O)C3(CCC(COCC)C3)NC2=O)c(CC)c1 (centres unmarked) [Example I-24]	–	–	–	–	–	–	–	–	–	–	–	–	80	–	–
CC#Cc1cc(C)c(C2=C(OC(=O)OCC)C3(CCC(COCCC)C3)NC2=O)c(OC)c1 (centres unmarked) [Example P-83]	90	100	100	100	–	100	80	100	100	100	100	100	80	90	100
C=CCOCC1CCC2(C1)NC(=O)C(c1c(C)cc(C#CC)cc1Br)=C2OC(=O)OCC (centres unmarked) [Example P-85]	100	80	100	90	–	100	80	100	100	100	100	100	90	–	90
CC#Cc1cc(C)c(C2=C(OC(=O)C(C)C)C3(CCC(COCC)C3)NC2=O)c(Br)c1 (centres unmarked) [Example P-36]	100	100	90	90	–	100	80	100	100	100	100	90	80	–	–
CC#Cc1cc(F)c(C2=C(OC(=O)C(C)C)C3(CCC(COCC)C3)NC2=O)c(OC)c1 (centres unmarked) [Example P-67]	–	100	100	–	80	100	80	100	100	100	90	100	80	90	90
CC#Cc1cc(C)c(C2=C(O)C3(CCC(COCCOC)C3)NC2=O)c(OC)c1 (centres unmarked) [Example I-52]	80	100	100	–	80	100	100	100	100	100	100	100	–	90	90
CC#Cc1cc(F)c(C2=C(OC(=O)OCC)C3(CCC(COCC)C3)NC2=O)c(OC)c1 (centres unmarked) [Example P-69]	80	100	100	80	–	100	80	100	100	100	100	100	90	90	90

Reference: patent US20220386606A1, “SPECIFICALLY SUBSTITUTED 3-PHENYL-5-SPIROCYCLOPENTYL-3-PYRROLIN-2-ONES AND THEIR USE AS HERBICIDES” (Bayer Aktiengesellschaft, priority 2019, published 2022)
